Results taken from patent US8835511B2, “Absorbent articles including an odor control system” (The Procter & Gamble Company, priority 2007, dated 2014).

Columns and labels:
[1] = Odor unpleasantness of samples exposed to malodorant solution, evaluated by a panel of expert graders; conditions: % relative unpleasantness vs. reference (malodorant solution = 100); 10 ml of 0.1% aqueous ammonia; 16 mg total odor control material; five expert graders, 4 replicates, 25° C.
Protocol: For proving the synergistic effect on odor reduction several test samples are prepared by exposing them to a 0.1% aqueous solution of ammonia, which serves as a test malodorous substance. The first data point in table 2 serves as a benchmark as it represents the degree of unpleasantness of the ammonia solution without added odor control material. Data points 2-3 in table 2 are illustrating the malodor-reducing activity of two exemplary odor control materials alone, specifically alpha-amylcinnamaldehyde as exemplary aldehyde and menthyl acetate as an exemplary odor control material acting on the nose receptors. The last data point 4 in table 2 is illustrating the activity of the odor control system of the present invention. For comparability, two individual odor control materials were mixed at half their amount compared to data points 2-3. Data point 4 was obtained by testing a mixture of alpha-Amylcinnamaldehyde and menthyl acetate. […] Thus, synergistic odor control activity has been proven. Further, odor unpleasantness and pleasantness of these samples was evaluated by a panel of expert graders. In particular, five different expert graders evaluated 4 replicates for each sample. Odor unpleasantness was evaluated by using a scale from −10 to +0, where—10 indicates the max odor unpleasantness, 0 indicates no odor. […]

[2] = Thermogravimetric analysis (TGA), weight loss over time at 40° C.; assay type: physicochemical; conditions: samples kept at 40° C. for 180 minutes, mixture = menthyl acetate (10%) + silica gel (ex Grace, coded 123)
Protocol: The stabilization effect has been proven by running a Thermogravimetric analysis (TGA) on samples of narrow silica gel treated with 10 weight-% of menthyl acetate. Specifically, the method is based on evaluation of weight loss over time at specific temperature (40° C.). The samples were kept at 40° C. for 180 minutes. In order to have a basis for comparison the TGA analysis was performed on a sample of pure menthyl acetate and a sample of pure silica gel as references together with a sample of menthyl acetate (10%)+silica gel (ex Grace, coded 123).

Row | SMILES | Odor unpleasantness [1] [%] | Weight Loss [2] [%]
1 | CCCCCC(C=O)=Cc1ccccc1 [Alpha-Amylcinnamaldehyde, alpha-amylcinnamaldehyde] | 64 | 
2 | CC(=O)OC1CC(C)CCC1C(C)C (stereo not drawn) [Menthyl acetate, menthyl acetate] | 46 | ~100
